Measurements: US7211566B2 (Universite De Sherbrooke, priority 2003, dated 2007)
Square brackets hold non-standard residues; d marks the D form. Peptide text beside a SMILES is read from it. Oic = O=C(O)[C@@H]1C[C@@H]2CCCC[C@@H]2N1; d2Nal = N[C@H](Cc1ccc2ccccc2c1)C(=O)O; αMeF = C[C@](N)(Cc1ccccc1)C(=O)O; Orn = NCCC[C@H](N)C(=O)O

Columns and labels:
BKB1 receptor [1] = target: T1, BKB1 receptor (Homo sapiens, UniProt P46663); assay: Isolated human umbilical vein (hUV) organ bath, antagonist potency pA2; type: cell-based; parameters: the hUV that contains BKB1 and BKB2 receptors; from tissue; host or cells: isolated human umbilical vein (hUV); details: human umbilical vein treated with HOE 140; mean ± SEM of 4–7 experiments; read-out: Antagonist potencies (pA2) BKB1-R hUV (converted)
T1 sequence (P46663 1-353): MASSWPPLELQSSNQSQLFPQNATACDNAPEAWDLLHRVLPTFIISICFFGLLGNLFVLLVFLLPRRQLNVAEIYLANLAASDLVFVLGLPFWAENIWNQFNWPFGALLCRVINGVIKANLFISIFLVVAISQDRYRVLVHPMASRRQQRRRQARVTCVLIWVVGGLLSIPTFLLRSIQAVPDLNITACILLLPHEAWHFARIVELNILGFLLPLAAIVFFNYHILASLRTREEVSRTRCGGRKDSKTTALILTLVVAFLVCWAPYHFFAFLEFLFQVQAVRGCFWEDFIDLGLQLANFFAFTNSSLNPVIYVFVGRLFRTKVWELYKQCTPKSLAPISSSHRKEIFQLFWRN
Protocol: (§1) Selected antagonists were tested for activities in three isolated organs: (1) the rabbit aorta (rbA), (2) the human umbilical vein (hUV) and (3) the rabbit jugular vein (rbJV).
(§2) All details regarding the procurements of human umbilical cords and rabbit vessels as well as, the procedures for preparing the isolated organs and the experimental protocols are described in these respective publications: rbA (Rioux et al. 1973, Can J Physiol Pharmacol 51, 114–121); hUV (Gobeil et al. 1996, Br J Pharmacol 118, 289–294), and rbJV (Gaudreau et al. 1981, Can J Physiol Pharmacol 59, 371–379).
(§3) The rabbit jugular vein (a pure BKB2 receptor system) was used to exclude any action of the new compounds on the BKB2 receptor and thus establish their selectivity. All tissues were treated with captopril (1 μM) to prevent the degradation of the peptidic agonists.
(§4) Repeated applications of a single and double concentration of BK (on rbJV,) or of desArg^9BK (rbA and hUV) were made in the absence and in presence of the various peptides to evaluate their apparent affinities as antagonists, in terms of pA2 (-log10 of the molar concentration of antagonist that reduces the effect of a double concentration of agonist to that of a single one) (Schild 1947, Br J Pharmacol 2, 189–206).

BKB2 receptor = target: T2, BKB2 receptor (Oryctolagus cuniculus, UniProt Q28642); assay: Isolated rabbit jugular vein (rbJV) organ bath, antagonist potency pA2; type: cell-based; details: BK as agonist, read-out: Antagonist potencies (pA2) BKB2-R rbJV (converted)
T2 construct: The rabbit jugular vein (a pure BKB2 receptor system); from tissue; host or cells: isolated rabbit jugular vein (rbJV)
T2 sequence (Q28642 1-367): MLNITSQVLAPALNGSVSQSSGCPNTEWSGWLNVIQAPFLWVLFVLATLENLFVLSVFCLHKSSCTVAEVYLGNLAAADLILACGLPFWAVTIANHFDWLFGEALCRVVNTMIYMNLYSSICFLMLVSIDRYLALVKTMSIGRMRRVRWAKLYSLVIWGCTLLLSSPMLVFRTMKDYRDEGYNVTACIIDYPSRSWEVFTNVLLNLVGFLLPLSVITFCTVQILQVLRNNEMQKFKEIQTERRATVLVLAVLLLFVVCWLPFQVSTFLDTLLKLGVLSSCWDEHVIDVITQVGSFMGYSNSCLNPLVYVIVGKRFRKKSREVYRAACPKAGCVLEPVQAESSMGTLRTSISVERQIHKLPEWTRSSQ
Protocol: as §1, §2, §3, §4

BKB1 receptor [2] = target: T3, BKB1 receptor (Oryctolagus cuniculus, UniProt P48748); assay: Isolated rabbit aorta (rbA) organ bath, antagonist potency pA2; type: cell-based; details: rabbit aorta without endothelium; mean ± SEM of 4–7 experiments; read-out: Antagonist potencies (pA2) BKB1-R rbA (converted)
T3 construct: The rabbit aorta without endothelium (which contains only the BKB1 receptor); from tissue; host or cells: isolated rabbit aorta (rbA) without endothelium
T3 sequence (P48748 1-352): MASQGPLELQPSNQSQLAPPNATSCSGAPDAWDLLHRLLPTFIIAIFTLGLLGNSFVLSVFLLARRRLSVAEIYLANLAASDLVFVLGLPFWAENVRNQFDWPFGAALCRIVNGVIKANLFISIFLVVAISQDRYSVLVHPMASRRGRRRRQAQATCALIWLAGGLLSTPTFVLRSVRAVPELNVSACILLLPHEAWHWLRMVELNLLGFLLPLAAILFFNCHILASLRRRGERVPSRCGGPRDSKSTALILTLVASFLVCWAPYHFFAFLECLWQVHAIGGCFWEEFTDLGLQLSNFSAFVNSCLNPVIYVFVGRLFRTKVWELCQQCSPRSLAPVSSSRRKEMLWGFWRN
Protocol: as §1, §2
The rabbit aorta without endothelium (which contains only the BKB1 receptor) was used to determine the antagonistic activities of each compound.
as §3, §4

aminopeptidase M (AmM) = target: T4, aminopeptidase M (AmM) (Homo sapiens, UniProt P15144); assay: In vitro metabolic stability against human plasma AmM; type: in vitro ADME; details: male, human plasma as source of aminopeptidase M, pH 7.5, peptide 200 μM, 60 min incubation, mean ± SEM of 3, read-out: Peptide metabolism (%) Human plasma AmM
T4 construct: incubated for 60 min with 50 μl of human plasma; from tissue; host or cells: human plasma from heparinized blood of healthy male volunteers
Protocol: These assays were performed using three enzyme preparations: purified angiotensin converting enzyme (ACE; from rabbit lung), human plasma as a, source of aminopeptidase M (AmM) and human platelets as a source of aminopeptidase P (AmP).
Human plasma AmM was prepared as previously described (Gobeil et al., 1999, Hypertension, 33, 823–829). Blood (5 ml) was withdrawn from healthy normotensive male Caucasian volunteers and put into heparinized tube (200 U). Blood samples were centrifuged at 1500 rpm for 15 min in a refrigerated tabletop centrifuge. The peptide antagonists (200 μM) were placed in a PBS buffer (50 mM, pH 7.5, containing 300 mM NaCl) and incubated for 60 min with 50 μl of human plasma (total volume of the medium, 375 μl). Immersing samples into boiling water and then cooling them on ice stopped the hydrolysis reaction. Control experiments have shown that ≈70% of the kininase activity that is present in the human plasma is abolished by amastatin (1 μM) and that the incubation of Lys-[Leu^8]desArg^9BK with this enzymatic preparation led to the production of [Leu^8]desArg^9BK as detected by electrospray mass spectrometry.

T4 sequence (P15144 whole entry): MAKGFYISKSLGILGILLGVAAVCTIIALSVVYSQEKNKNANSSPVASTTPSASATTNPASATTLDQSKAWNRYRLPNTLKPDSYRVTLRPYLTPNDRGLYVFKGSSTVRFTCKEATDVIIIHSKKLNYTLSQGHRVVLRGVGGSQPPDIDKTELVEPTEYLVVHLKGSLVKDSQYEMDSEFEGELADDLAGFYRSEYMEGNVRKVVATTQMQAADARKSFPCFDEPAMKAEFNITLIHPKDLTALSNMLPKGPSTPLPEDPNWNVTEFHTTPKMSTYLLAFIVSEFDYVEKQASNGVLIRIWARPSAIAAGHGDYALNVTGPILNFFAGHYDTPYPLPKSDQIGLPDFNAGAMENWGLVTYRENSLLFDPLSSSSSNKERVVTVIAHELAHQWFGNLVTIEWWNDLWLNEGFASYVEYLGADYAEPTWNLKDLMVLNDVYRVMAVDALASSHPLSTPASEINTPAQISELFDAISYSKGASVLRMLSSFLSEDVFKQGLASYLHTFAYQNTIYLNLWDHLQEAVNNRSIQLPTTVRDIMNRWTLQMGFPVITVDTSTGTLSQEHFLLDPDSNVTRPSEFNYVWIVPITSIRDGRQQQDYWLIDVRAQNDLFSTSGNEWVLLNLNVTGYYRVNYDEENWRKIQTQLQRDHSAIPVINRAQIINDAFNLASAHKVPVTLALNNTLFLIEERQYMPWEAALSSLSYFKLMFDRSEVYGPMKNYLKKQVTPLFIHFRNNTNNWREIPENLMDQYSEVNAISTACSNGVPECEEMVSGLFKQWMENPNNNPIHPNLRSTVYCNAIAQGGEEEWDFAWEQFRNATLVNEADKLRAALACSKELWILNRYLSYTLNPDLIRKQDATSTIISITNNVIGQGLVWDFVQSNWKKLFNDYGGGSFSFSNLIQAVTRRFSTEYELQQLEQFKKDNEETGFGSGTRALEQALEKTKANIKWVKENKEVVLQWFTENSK

SMILES: CC[C@H](C)[C@H](NC(=O)[C@@H](Cc1ccc2ccccc2c1)NC(=O)[C@H](CO)NC(=O)[C@](C)(Cc1ccccc1)NC(=O)CNC(=O)[C@@H]1CCCN1C(=O)[C@@H]1C[C@@H]2CCCC[C@@H]2N1C(=O)[C@H](CCCNC(=N)N)NC(=O)[C@H](CCCCN)NC(C)=O)C(=O)O [Ac-Lys[Oic^2,(α-Me)Phe^5,D-βNal^7,Ile^8]desArg^9BK] (Ac-KR[Oic]PG[αMeF]S[d2Nal]I-OH)
- Kb (BKB1 receptor [1]): 3.72 nM
- Kb (BKB2 receptor): > 1000 nM
- Kb (BKB1 receptor [2]): 3.16 nM
- metabolised at 1 h, 200 µM (aminopeptidase M (AmM)): 0%

SMILES: CC[C@H](C)[C@H](NC(=O)[C@@H](Cc1ccc2ccccc2c1)NC(=O)[C@H](CO)NC(=O)[C@](C)(Cc1ccccc1)NC(=O)CNC(=O)[C@@H]1CCCN1C(=O)[C@@H]1C[C@@H]2CCCC[C@@H]2N1C(=O)[C@H](CCCNC(=N)N)NC(=O)[C@H](CCCN)NC(C)=O)C(=O)O [compound c, Ac-Orn[Oic^2,(α-Me)Phe^5,D-βNal^7,Ile^8]desArg^9BK] (Ac-[Orn]R[Oic]PG[αMeF]S[d2Nal]I-OH)
- Kb (BKB1 receptor [1]): 3.47 nM
- Kb (BKB2 receptor): > 1000 nM
- Kb (BKB1 receptor [2]): 2.29 nM
- metabolised at 1 h, 200 µM (aminopeptidase M (AmM)): 0%
